≈ marks a conversion by molar mass, not a printed value. Read-outs that look alike come from different tables or passages of the source.
Tests used:
[1] = High-throughput equilibrium solubility at pH 6.8; assay type: physicochemical; conditions: pH 6.8, aqueous buffer, thermodynamic from solid; read-out: HT-Eq Sol/pH 6.8
Method in brief: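 Solubility was measured at pH 6.8 following the cited Zhou et al. (2007) procedure.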

PI3K delta = molecular target: T1, PI3K delta (Homo sapiens, UniProt O00329); assay: PI3K delta kinase assay (Kinase-Glo luminescence); assay type: biochemical
T1 construct: for the full-length p110-d subunit are generated and fused by overlapping PCR; His tag (C); made in house; host or cells: baculovirus BV1060; Tn5 (Trichoplusia ni) or TiniPro insect cells
Method in brief: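 Kinase-Glo ATP-depletion luminescence using 10 nM p85(iSH2)-linker-p110δ full-length His-tag construct from insect cells, with 1 μM ATP and 10 μg/mL phosphatidylinositol in 10 mM Tris pH 7.5, 3 mM MgCl2, 50 mM NaCl, 0.05% CHAPS, 1 mM DTT. 60 min room temperature; IC50 from 4-parameter logistic fit over 8 concentrations.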

T1 sequence (O00329 with tags, fused parts or gaps limits assumed): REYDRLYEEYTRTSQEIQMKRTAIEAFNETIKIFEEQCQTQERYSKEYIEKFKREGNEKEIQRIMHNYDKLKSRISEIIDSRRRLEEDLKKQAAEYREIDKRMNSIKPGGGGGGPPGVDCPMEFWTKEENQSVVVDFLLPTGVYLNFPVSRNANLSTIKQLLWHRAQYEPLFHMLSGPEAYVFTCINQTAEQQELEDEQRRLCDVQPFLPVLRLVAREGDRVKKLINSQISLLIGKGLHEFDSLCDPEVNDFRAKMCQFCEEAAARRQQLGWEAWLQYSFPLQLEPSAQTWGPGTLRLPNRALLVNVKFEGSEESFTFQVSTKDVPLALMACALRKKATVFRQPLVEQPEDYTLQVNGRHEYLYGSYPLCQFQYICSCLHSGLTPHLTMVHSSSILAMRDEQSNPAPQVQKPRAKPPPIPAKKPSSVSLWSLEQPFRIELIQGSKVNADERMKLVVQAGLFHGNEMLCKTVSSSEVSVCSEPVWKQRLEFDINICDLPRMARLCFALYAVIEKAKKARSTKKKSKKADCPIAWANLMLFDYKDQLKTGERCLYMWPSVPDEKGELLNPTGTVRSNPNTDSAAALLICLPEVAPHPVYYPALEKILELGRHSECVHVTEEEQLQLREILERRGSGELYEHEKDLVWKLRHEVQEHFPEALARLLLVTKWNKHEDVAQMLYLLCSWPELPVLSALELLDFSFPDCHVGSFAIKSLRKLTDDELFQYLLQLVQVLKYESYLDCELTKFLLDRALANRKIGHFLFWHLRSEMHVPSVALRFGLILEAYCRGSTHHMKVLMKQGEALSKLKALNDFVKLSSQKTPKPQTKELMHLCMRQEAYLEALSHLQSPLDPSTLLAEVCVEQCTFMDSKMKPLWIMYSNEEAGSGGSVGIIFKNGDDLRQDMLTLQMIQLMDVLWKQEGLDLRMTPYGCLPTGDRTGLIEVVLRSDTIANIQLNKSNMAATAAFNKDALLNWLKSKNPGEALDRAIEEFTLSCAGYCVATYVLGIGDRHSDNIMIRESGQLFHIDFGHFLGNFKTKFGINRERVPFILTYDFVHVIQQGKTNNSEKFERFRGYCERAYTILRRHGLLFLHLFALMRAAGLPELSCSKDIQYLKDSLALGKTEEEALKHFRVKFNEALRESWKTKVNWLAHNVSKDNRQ

solubility thermodynamic [1] [µg/mL] | IC50 (PI3K delta; read-out: EPK_PI3Kdelta/IC50) [nM] | IC50 (PI3K delta; read-out: PI3Kdelta/IC50) [nM] | SMILES
10 (≈ 23.5 µM) | 67 | – | Cc1nc(N(C)C)ccc1-n1c(=O)n(C)c2cnc3ccc(-c4cncc(N)c4)cc3c21 [Example 19.5, 8-(5-Amino-pyridin-3-yl)-1-(6-dimethylamino-2-methyl-pyridin-3-yl)-3-methyl-1,3-dihydro-imidazo[4,5-c]quinolin-2-one]
4 (≈ 9.4 µM) | 30 | – | CCOc1ccc(-c2ccc3ncc4c(c3c2)n(-c2ccc(C)nc2C)c(=O)n4C)cn1 [Example 14.2, 1-(2,6-Dimethyl-pyridin-3-yl)-8-(6-ethoxy-pyridin-3-yl)-3-methyl-1,3-dihydro-imidazo[4,5-c]quinolin-2-one]
3 (≈ 7.02 µM) | – | 85 | COc1ncccc1-n1c(=O)n(C)c2cnc3ccc(-c4cnc(N(C)C)nc4)cc3c21 [Example 1.9, 8-(2-Dimethylamino-pyrimidin-5-yl)-1-(2-methoxy-pyridin-3-yl)-3-methyl-1,3-dihydro-imidazo[4,5-c]quinolin-2-one]
81 (≈ 167 µM) | 32 | – | CNc1ncc(-c2ccc3ncc4c(c3c2)n(-c2ccc(N(C)CCOC)nc2C)c(=O)n4C)cn1 [Example 15.2, 1-{6-[(2-Methoxy-ethyl)-methyl-amino]-2-methyl-pyridin-3-yl}-3-methyl-8-(2-methylamino-pyrimidin-5-yl)-1,3-dihydro-imidazo[4,5-c]quinolin-2-one]
5 (≈ 10.4 µM) | 13 | – | CCNc1cc(-c2ccc3ncc4c(c3c2)n(-c2ccc(N(C)CC)nc2C)c(=O)n4C)cnc1C [Example 12.2, 8-(5-Ethylamino-6-methyl-pyridin-3-yl)-1-[6-(ethyl-methyl-amino)-2-methyl-pyridin-3-yl]-3-methyl-1,3-dihydro-imidazo[4,5-c]quinolin-2-one]
14 (≈ 35.2 µM) | – | 22 | CNc1ncc(-c2ccc3ncc4c(c3c2)n(-c2cccnc2C)c(=O)n4C)cn1 [Example 2.2, 3-Methyl-8-(2-methylamino-pyrimidin-5-yl)-1-(2-methyl-pyridin-3-yl)-1,3-dihydro-imidazo[4,5-c]quinolin-2-one]
70 (≈ 158 µM) | 27 | – | CCNc1cc(-c2ccc3ncc4c(c3c2)n(-c2cnc(F)cc2C)c(=O)n4C)cnc1C [Example 16.2, 8-(5-Ethylamino-6-methyl-pyridin-3-yl)-1-(6-fluoro-4-methyl-pyridin-3-yl)-3-methyl-1,3-dihydro-imidazo[4,5-c]quinolin-2-one]
2 (≈ 4.56 µM) | 39 | – | Cc1cc(F)ncc1-n1c(=O)n(C)c2cnc3ccc(-c4cnc5c(ccn5C)c4)cc3c21 [Example 16.5, 1-(6-Fluoro-4-methyl-pyridin-3-yl)-3-methyl-8-(1-methyl-1H-pyrrolo[2,3-b]pyridin-5-yl)-1,3-dihydro-imidazo[4,5-c]quinolin-2-one]
20 (≈ 41.5 µM) | 3 | – | CNc1ncc(-c2ccc3ncc4c(c3c2)n(-c2ccc(F)nc2C)c(=O)n4C)cc1C(F)(F)F [Example 7.13, 1-(6-Fluoro-2-methyl-pyridin-3-yl)-3-methyl-8-(6-methylamino-5-trifluoromethyl-pyridin-3-yl)-1,3-dihydro-imidazo[4,5-c]quinolin-2-one]
3 (≈ 6.56 µM) | 5 | – | CNC(=O)c1cc(-c2ccc3ncc4c(c3c2)n(-c2ccc(F)nc2C)c(=O)n4C)cnc1N [Example 7.14, 2-Amino-5-[1-(6-fluoro-2-methyl-pyridin-3-yl)-3-methyl-2-oxo-2,3-dihydro-1H-imidazo[4,5-c]quinolin-8-yl]-N-methyl-nicotinamide]
4 (≈ 9.97 µM) | – | 364 | COc1ncccc1-n1c(=O)n(C)c2cnc3ccc(-c4ccc(F)nc4)cc3c21 [Example 1.8, 8-(6-Fluoro-pyridin-3-yl)-1-(2-methoxy-pyridin-3-yl)-3-methyl-1,3-dihydro-imidazo[4,5-c]quinolin-2-one]
175 (≈ 399 µM) | 20 | – | CCNc1cc(-c2ccc3ncc4c(c3c2)n(-c2ccc(C)nc2C)c(=O)n4C)cnc1C [Example 14.6, 1-(2,6-Dimethyl-pyridin-3-yl)-8-(5-ethylamino-6-methyl-pyridin-3-yl)-3-methyl-1,3-dihydro-imidazo[4,5-c]quinolin-2-one]
8 (≈ 19.4 µM) | 44 | – | CNc1ncc(-c2ccc3ncc4c(c3c2)n(-c2ccc(C)nc2C)c(=O)n4C)cn1 [Example 14.4, 1-(2,6-Dimethyl-pyridin-3-yl)-3-methyl-8-(2-methylamino-pyrimidin-5-yl)-1,3-dihydro-imidazo[4,5-c]quinolin-2-one]
7 (≈ 16.5 µM) | 49 | – | Cc1ccc(-n2c(=O)n(C)c3cnc4ccc(-c5cnc(N(C)C)nc5)cc4c32)c(C)n1 [Example 14.3, 8-(2-Dimethylamino-pyrimidin-5-yl)-1-(2,6-dimethyl-pyridin-3-yl)-3-methyl-1,3-dihydro-imidazo[4,5-c]quinolin-2-one]
3 (≈ 6.87 µM) | – | 101 | COc1ncccc1-n1c(=O)n(C)c2cnc3ccc(-c4cnc5c(ccn5C)c4)cc3c21 [Example 1.7, 1-(2-Methoxy-pyridin-3-yl)-3-methyl-8-(1-methyl-1H-pyrrolo[2,3-b]pyridin-5-yl)-1,3-dihydro-imidazo[4,5-c]quinolin-2-one]
7 (≈ 15.9 µM) | 12 | – | CNc1ncc(-c2ccc3ncc4c(c3c2)n(-c2ccc(N(C)C)nc2C)c(=O)n4C)cn1 [Example 19.1, 1-(6-Dimethylamino-2-methyl-pyridin-3-yl)-3-methyl-8-(2-methylamino-pyrimidin-5-yl)-1,3-dihydro-imidazo[4,5-c]quinolin-2-one]
67.5 (≈ 147 µM) | 37 | – | CCOCc1cc(-c2ccc3ncc4c(c3c2)n(-c2ccc(F)nc2C)c(=O)n4C)cnc1N [Example 7.15, 8-(6-Amino-5-ethoxymethyl-pyridin-3-yl)-1-(6-fluoro-2-methyl-pyridin-3-yl)-3-methyl-1,3-dihydro-imidazo[4,5-c]quinolin-2-one]
207 (≈ 466 µM) | 26 | – | CNc1cc(-c2ccc3ncc4c(c3c2)n(-c2ccc(F)nc2C)c(=O)n4C)cnc1CO [Example 7.11, 1-(6-Fluoro-2-methyl-pyridin-3-yl)-8-(6-hydroxymethyl-5-methylamino-pyridin-3-yl)-3-methyl-1,3-dihydro-imidazo[4,5-c]quinolin-2-one]
26 (≈ 56.8 µM) | < 3 | – | COc1ccc(-n2c(=O)n(C)c3cnc4ccc(-c5cnc(CO)c(OC)c5)cc4c32)c(C)n1 [Example 11.8, 8-(6-Hydroxymethyl-5-methoxy-pyridin-3-yl)-1-(6-methoxy-2-methyl-pyridin-3-yl)-3-methyl-1,3-dihydro-imidazo[4,5-c]quinolin-2-one]
15 (≈ 31.8 µM) | 60 | – | CNc1ncc(-c2ccc3ncc4c(c3c2)n(-c2ccc(OCCOC)nc2C)c(=O)n4C)cn1 [Example 13.5, 1-[6-(2-Methoxy-ethoxy)-2-methyl-pyridin-3-yl]-3-methyl-8-(2-methylamino-pyrimidin-5-yl)-1,3-dihydro-imidazo[4,5-c]quinolin-2-one]
4 (≈ 7.88 µM) | 21 | – | COCCN(C)c1ccc(-n2c(=O)n(C)c3cnc4ccc(-c5cnc6c(ccn6C)c5)cc4c32)c(C)n1 [Example 15.7, 1-{6-[(2-Methoxy-ethyl)-methyl-amino]-2-methyl-pyridin-3-yl}-3-methyl-8-(1-methyl-1H-pyrrolo[2,3-b]pyridin-5-yl)-1,3-dihydro-imidazo[4,5-c]quinolin-2-one]
140 (≈ 274 µM) | 9 | – | CCNc1cc(-c2ccc3ncc4c(c3c2)n(-c2ccc(N(C)CCOC)nc2C)c(=O)n4C)cnc1C [Example 15.6, 8-(5-Ethylamino-6-methyl-pyridin-3-yl)-1-{6-[(2-methoxy-ethyl)-methyl-amino]-2-methyl-pyridin-3-yl}-3-methyl-1,3-dihydro-imidazo[4,5-c]quinolin-2-one]
– | – | 8 | COc1ncccc1-n1c(=O)n(C)c2cnc3ccc(-c4cnc(N)c(C(F)(F)F)c4)cc3c21 [Example 1.3, 8-(6-Amino-5-trifluoromethyl-pyridin-3-yl)-1-(2-methoxy-pyridin-3-yl)-3-methyl-1,3-dihydro-imidazo[4,5-c]quinolin-2-one]
– | 61 | – | CCOc1cc(-c2ccc3ncc4c(c3c2)n(-c2cccnc2C)c(=O)n4C)cnc1C [Example 2.22, 8-(5-Ethoxy-6-methyl-pyridin-3-yl)-3-methyl-1-(2-methyl-pyridin-3-yl)-1,3-dihydro-imidazo[4,5-c]quinolin-2-one]
– | 142 | – | COCC(=O)Nc1ccc(-n2c(=O)n(C)c3cnc4ccc(-c5cncc(OC(C)C)c5)cc4c32)c(C)n1 [Example 20.5, N-{5-[8-(5-Isopropoxy-pyridin-3-yl)-3-methyl-2-oxo-2,3-dihydro-imidazo[4,5-c]quinolin-1-yl]-6-methyl-pyridin-2-yl}-2-methoxy-acetamide]
– | – | 57 | Cc1ncccc1-n1c(=O)n(C)c2cnc3ccc(-c4cnc5c(ccn5C)c4)cc3c21 [Example 2.14, 3-Methyl-1-(2-methyl-pyridin-3-yl)-8-(1-methyl-1H-pyrrolo[2,3-b]pyridin-5-yl)-1,3-dihydro-imidazo[4,5-c]quinolin-2-one]
– | 14 | – | Cc1nc(C(C)(C)O)ccc1-n1c(=O)n(C)c2cnc3ccc(-c4cncc(OC(C)C)c4)cc3c21 [Example 31.9, 1-[6-(1-Hydroxy-1-methyl-ethyl)-2-methyl-pyridin-3-yl]-8-(5-isopropoxy-pyridin-3-yl)-3-methyl-1,3-dihydro-imidazo[4,5-c]quinolin-2-one]
